The test system of the assay is Hela and human epithelial kidney 293 cells. The experiment in a line: Geldanamycin treatment of cells, immunofluorescence staining with anti-α-tubulin, anti-γ-tubulin and anti-Hsp90 antibodies. Type of assay: cell-based. The following applies: 1 μg/ml geldanamycin. The method, then:
Geldanamycin specifically interferes with the function of Hsp90 by binding to the ATP binding site of Hsp90 (Prodromou et al., 1997, Cell 90:65-75; Stebbins et al., 1997, Cell 89:239-250). Hela and human epithelial kidney 293 cells were treated with 1 μg/ml geldanamycin for times ranging from […] (15 minutes, 30 minutes, 1 hour, 5 hours, 15 hours, 20 hours and 30 hours) and were stained with anti-α-tubulin, anti-γ-tubulin and anti-Hsp90 antibodies. […] However, aberrant mitotic spindles were detected from as early as 1 hour of treatment with geldanamycin. More than 50% of the mitotic figures produced in the presence of the drug after 20 hours of treatment contained aberrant mitotic figures in which the centrosomes, the spindles, and the distribution of chromatin were severely disrupted. […] The spindles of these cells were rather asymmetric, with unequal amounts of microtubules in each hemi-spindle and spindle poles very often detached from the centrosome. The aster microtubules which are organized around the centrosome were also abnormal in number and distribution. […] About 50% of the cells contained misaligned chromosomes. Thus, while the centrosome and the cytoskeleton of interphase cells were insensitive to geldanamycin, mitotic centrosomes cannot be properly formed in the presence of geldanamycin. […] Therefore, notwithstanding the possible contribution of other non-centrosomal functions of Hsp90 to some of these phenotypes, it is clear that the inhibition of the function of Hsp90 results in abnormalities in centrosome structure.

The structures appear in SMILES notation.

For `COC1=C2C[C@@H](C)C[C@H](OC)[C@H](O)[C@@H](C)/C=C(\C)[C@H](OC(N)=O)[C@@H](OC)/C=C\C=C(/C)C(=O)NC(=CC1=O)C2=O` [geldanamycin], the “cells containing misaligned chromosomes” value is given as “About 50%” and the “earliest treatment time at which aberrant mitotic spindles were detected” value was determined as 1 h. Where the note is “after 20 hours of treatment”, the “mitotic figures that were aberrant (centrosomes, spindles and distribution of chromatin severely disrupted)” value was “More than 50%”.

Source of the values: US6335157B1, “Method based on localization of Hsp90 to the centrosome” (The European Molecular Biology Laboratory, priority 1999, dated 2002).
